In PMC6934184, “Selective DNA-PKcs inhibition extends the therapeutic index of localized radiotherapy and chemotherapy” (The Journal of Clinical Investigation, 2019):

Biological target: T1, NLK (Homo sapiens, UniProt Q9UBE8)
T1 construct: purchased Thermo Fisher Scientific (Life Technologies) SelectScreen
Assay: SelectScreen LanthaScreen
Format: binding
Settings: read-out: % displacement
How it was run: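 Percent values come from Thermo SelectScreen profiling of NU5455, combining activity and binding assays. CSF1R was run in Z'LYTE format at Km app ATP, and CAMK1 in Adapta format with ATP listed at 10.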

T1 sequence (Q9UBE8 whole entry): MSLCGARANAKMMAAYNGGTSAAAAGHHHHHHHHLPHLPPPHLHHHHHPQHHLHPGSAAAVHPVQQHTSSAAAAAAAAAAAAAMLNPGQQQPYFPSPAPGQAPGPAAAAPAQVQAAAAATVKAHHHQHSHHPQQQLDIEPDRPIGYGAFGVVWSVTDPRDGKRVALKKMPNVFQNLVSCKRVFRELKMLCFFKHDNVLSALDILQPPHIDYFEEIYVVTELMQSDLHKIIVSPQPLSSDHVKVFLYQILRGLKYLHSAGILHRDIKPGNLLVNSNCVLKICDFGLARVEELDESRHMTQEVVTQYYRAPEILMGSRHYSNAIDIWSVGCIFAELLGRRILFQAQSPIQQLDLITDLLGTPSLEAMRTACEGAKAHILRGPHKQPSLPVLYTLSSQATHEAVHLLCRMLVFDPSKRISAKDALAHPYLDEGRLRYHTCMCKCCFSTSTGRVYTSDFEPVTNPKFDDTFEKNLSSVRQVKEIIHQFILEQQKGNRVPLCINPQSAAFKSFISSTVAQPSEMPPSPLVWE

CN(C(=O)CN1CCOCC1)c1ccc2sc3c(-c4cccc5c(=O)cc(N6CC7CCC(C6)O7)oc45)cccc3c2c1 [NU5455]
inhibition at 1 µM: 4.7%
